Laboratory results from patent US20070043084A1, “1,2-Diarylimidazoles useful as inhibitors of cox” (Astellas Pharma Inc., priority 2003, published 2007).

What was measured:
COX-I = target: T1, COX-I (Homo sapiens, UniProt P23219); test: Whole blood assay for COX-I (TXB2 production); assay type: cell-based; conditions: 1 hr at 37° C.
T1 construct: Fresh blood was collected by syringe without anticoagulants from volunteers with consent; from tissue; host or cells: fresh human whole blood from volunteers, no anticoagulant, left to clot
Description: [B] Inhibiting Activity Against COX-I and COX-II (Whole Blood Assay): (i) Test Method: Whole Blood Assay for COX-I
Fresh blood was collected by syringe without anticoagulants from volunteers with consent. The subjects had no apparent inflammatory conditions and had not taken any medication for at least 7 days prior to blood collection.
500 μl aliquots of human whole blood were immediately incubated with 2 μl of either dimethyl sulfoxide vehicle or a test compound at final concentrations for 1 hr at 37° C. to allow the blood to clot. Appropriate treatments (no incubation) were used as blanks. At the end of the incubation, 5 μl of 250 mM Indomethacin was added to stop the reaction. The blood was centrifuged at 6000×g for 5 min at 4° C. to obtain serum. A 100 μl aliquot of serum was mixed with 400 μl methanol for protein precipitation. The supernatant was obtained by centrifuging at 6000×g for 5 min at 4° C. and was assayed for TXB2 using an enzyme immunoassay kit according to the manufacturer's procedure. For a test compound, the results were expressed as percent inhibition of thromboxane B2(TXB2) production relative to control incubations containing dimethyl sulfoxide vehicle.
The data were analyzed by that a test compound at the indicated concentrations was changed log value and was applied simple linear regression. IC50 value was calculated by least squares method.

COX-II = target: T2, COX-II (Homo sapiens, UniProt P35354); test: Whole blood assay for COX-II (LPS-induced PGE2 production); assay type: cell-based; conditions: lipopolysaccharide 24 hrs at 37° C.
T2 construct: lipopolysaccharide for 24 hrs at 37° C. for induction of COX-II; from tissue; host or cells: fresh heparinized human whole blood from volunteers, stimulated with LPS for 24 hrs
T2 sequence (P35354 18-604): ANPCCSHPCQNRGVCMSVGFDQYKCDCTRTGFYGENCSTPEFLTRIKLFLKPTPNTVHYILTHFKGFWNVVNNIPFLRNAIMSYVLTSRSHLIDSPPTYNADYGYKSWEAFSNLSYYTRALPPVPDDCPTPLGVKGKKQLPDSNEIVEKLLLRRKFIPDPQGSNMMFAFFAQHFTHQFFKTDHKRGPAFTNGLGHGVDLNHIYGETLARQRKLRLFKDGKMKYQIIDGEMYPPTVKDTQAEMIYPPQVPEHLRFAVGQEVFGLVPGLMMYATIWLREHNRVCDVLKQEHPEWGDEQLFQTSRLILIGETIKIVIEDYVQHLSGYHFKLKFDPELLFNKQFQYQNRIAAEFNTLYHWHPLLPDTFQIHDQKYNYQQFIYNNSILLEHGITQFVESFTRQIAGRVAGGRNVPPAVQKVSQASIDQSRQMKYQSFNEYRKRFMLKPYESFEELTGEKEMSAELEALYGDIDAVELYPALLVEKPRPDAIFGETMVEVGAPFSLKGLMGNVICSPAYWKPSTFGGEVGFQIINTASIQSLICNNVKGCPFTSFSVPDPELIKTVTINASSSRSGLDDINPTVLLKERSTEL
Description: Whole Blood Assay for COX-II
Fresh blood was collected in heparinized tubes by syringe from volunteers with consent. The subjects had no apparent inflammatory conditions and had not taken any medication for at least 7 days prior to blood collection.
500 μl aliquots of human whole blood were incubated with either 2 μl dimethyl sulfoxide vehicle or 2 μl of a test compound at final concentrations for 15 min at 37° C. This was followed by incubation of the blood with […] of 5 mg/ml lipopolysaccharide for 24 hrs at 37° C. for induction of COX-II. Appropriate PBS treatments (no LPS) were used as blanks. At the end of the incubation, the blood was centrifuged at 6000×g for 5 min at 4° C. to obtain plasma. A 100 μl aliquot of plasma was mixed with 400 μl methanol for protein precipitation. The supernatant was obtained by centrifuging at 6000×g for 5 min at 4° C. and was assayed for prostaglandin E2 (PGE2) using a radioimmunoassay kit after conversion of PGE2 to its methyl oximate derivative according to the manufacturer's procedure.
For a test compound, the results were expressed as percent inhibition of […] production relative to control incubations containing dimethyl sulfoxide vehicle. The data were analyzed by that a test compound at the indicated concentrations was changed log value and was applied simple linear regression. IC50 value was calculated by least squares method.

[1] = tested on: adjuvant arthritis in rats; test: Analgesic activity: effect on adjuvant arthritis in rats (Randall-Selitto pain threshold); assay type: in vivo, Lewis rats; conditions: dose 3.2 mg/kg; ratio of threshold pressure of treated vs non-treated arthritic rats, 2 hrs after administration; ratio of 1.5 = effective dose

T1 sequence (P23219 24-599): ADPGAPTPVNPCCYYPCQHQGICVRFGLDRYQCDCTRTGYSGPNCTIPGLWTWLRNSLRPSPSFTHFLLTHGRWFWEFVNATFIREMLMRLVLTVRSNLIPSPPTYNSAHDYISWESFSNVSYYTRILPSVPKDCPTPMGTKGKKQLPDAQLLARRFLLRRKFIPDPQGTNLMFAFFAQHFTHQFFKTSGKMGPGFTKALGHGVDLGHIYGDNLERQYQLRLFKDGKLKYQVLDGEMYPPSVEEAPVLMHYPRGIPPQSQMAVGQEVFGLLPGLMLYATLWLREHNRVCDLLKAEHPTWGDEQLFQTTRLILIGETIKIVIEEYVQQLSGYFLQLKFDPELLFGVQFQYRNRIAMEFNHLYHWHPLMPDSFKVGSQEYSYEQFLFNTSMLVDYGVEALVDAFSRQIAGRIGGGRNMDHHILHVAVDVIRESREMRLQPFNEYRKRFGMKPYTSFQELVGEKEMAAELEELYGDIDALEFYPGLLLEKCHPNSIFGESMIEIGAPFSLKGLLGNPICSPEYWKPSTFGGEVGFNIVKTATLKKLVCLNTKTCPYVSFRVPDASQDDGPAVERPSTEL

SMILES | melting point [°C] | IC50 (COX-I) [nM] | IC50 (COX-II) [nM] | The coefficient of analgesic [1]
COc1ccc(-c2nc(C(=O)C(C)C)cn2-c2ccc(OCc3ccccc3)cc2)cn1 [Example 57, 1-(4-Benzyloxyphenyl)-4-isopropylcarbonyl-2-(2-methoxy-5-pyridinyl)-1H-imidazole] | 118 to 120 | – | – | –
COc1ccc(-c2nc(C3CC3)cn2-c2ccc(OC)cc2)cc1.Cl [Example 20, 4-Cyclopropyl-1-(4-methoxyphenyl)-2-(4-methoxyphenyl)-1H-imidazole hydrochloride] | 180 to 181 | < 10 | ≥ 100 | –
CCOC(=O)c1cn(-c2ccc(OC)cc2)c(-c2ccc(OC)cc2)n1 [Example 9, 4-Ethoxycarbonyl-1-(4-methoxyphenyl)-2-(4-methoxyphenyl)-1H-imidazole] | 142 to 143 | – | – | –
CCN(C)C(=O)c1cn(-c2ccc(OCc3ccccc3)cc2)c(-c2ccc(OC)cc2)n1 [Example 46, 1-(4-Benzyloxyphenyl)-4-(N-ethyl-N-methylcarbamoyl)-2-(4-methoxyphenyl)-1H-imidazole] | 118 to 119 | – | – | –
COc1ccc(-c2nc(C(C)=O)cn2-c2ccc(OC)cc2)cc1 [Example 28, 4-Acetyl-1-(4-methoxyphenyl)-2-(4-methoxyphenyl)-1H-imidazole] | 116 to 117 | – | – | >1.5
CCN(CC)C(=O)c1cn(-c2ccc(OCc3ccccc3)cc2)c(-c2ccc(OC)cc2)n1 [Example 48, 1-(4-Benzyloxyphenyl)-4-(N,N-diethylcarbamoyl)-2-(4-methoxyphenyl)-1H-imidazole] | 146 to 147 | – | – | –
COc1ccc(-c2nc(C(=O)C(C)C)cn2-c2ccc(O)cc2)cn1 [Example 58, 4-Isopropylcarbonyl-1-(4-hydroxyphenyl)-2-(2-methoxy-5-pyridinyl)-1H-imidazole] | 185 to 187 | – | – | –
COc1ccc(-n2cc(C(F)F)nc2-c2ccc(OC)nc2)cc1 [Example 43, 4-Difluoromethyl-1-(4-methoxyphenyl)-2-(2-methoxy-5-pyridinyl)-1H-imidazole] | 106 to 107 | < 10 | ≥ 100 | >1.5
COc1ccc(-c2nc(C(=O)O)cn2-c2ccc(OC)cc2)cc1 [Example 18, 4-Carboxy-1-(4-methoxyphenyl)-2-(4-methoxyphenyl)-1H-imidazole] | 102 to 105 | – | – | –
CCOC(=O)c1ccc(-n2cc(C#N)nc2-c2ccc(OC)cc2)cc1 [Example 25-2, 4-Cyano-1-(4-ethoxycarbonylphenyl)-2-(4-methoxyphenyl)-1H-imidazole] | 139 to 140 | – | – | –
COc1ccc(-c2nc(C#N)cn2-c2ccc(OC)cc2)cc1.Cl [Example 11, 4-Cyano-1-(4-methoxyphenyl)-2-(4-methoxyphenyl)-1H-imidazole hydrochloride] | 142 to 143 | < 10 | ≥ 100 | >1.5
CCC(=O)c1cn(-c2ccc(OCc3ccccc3)cc2)c(-c2ccc(OC)nc2)n1 [Example 55, 1-(4-Benzyloxyphenyl)-4-ethylcarbonyl-2-(2-methoxy-5-pyridinyl)-1H-imidazole] | 126 to 128 | – | – | –
CCC(=O)c1cn(-c2ccc(O)cc2)c(-c2ccc(OC)nc2)n1 [Example 56, 4-Ethylcarbonyl-1-(4-hydroxyphenyl)-2-(2-methoxy-5-pyridinyl)-1H-imidazole] | 221 to 223 | – | – | –
CCOC(=O)c1cn(-c2ccc(OCc3ccccc3)cc2)c(-c2ccc(OC)nc2)n1 [Example 35-2, 1-(4-Benzyloxyphenyl)-4-ethoxycarbonyl-2-(2-methoxy-5-pyridinyl)-1H-imidazole] | 109 to 110 | – | – | –
COc1ccc(-n2cc(C#N)nc2-c2ccc(OC)nc2)cc1 [Example 4-2, 4-Cyano-1-(4-methoxyphenyl)-2-(2-methoxy-5-pyridinyl)-1H-imidazole] | 130 to 132 | < 10 | ≥ 100 | –
CCOC(=O)c1cn(-c2ccc(OC)cc2)c(-c2ccc(OC)nc2)n1 [Example 41-2, 4-Ethoxycarbonyl-1-(4-methoxyphenyl)-2-(2-methoxy-5-pyridinyl)-1H-imidazole] | 135 to 137 | – | – | –
COc1ccc(-c2nc(C(N)=O)cn2-c2ccc(OC)cc2)cc1 [Example 10, 4-Carbamoyl-1-(4-methoxyphenyl)-2-(4-methoxyphenyl)-1H-imidazole] | 167 to 169 | – | – | –

Continued, in another order:

melting point [°C] | IC50 (COX-I) [nM] | IC50 (COX-II) [nM] | SMILES | The coefficient of analgesic [1]
140 to 141 | < 10 | ≥ 100 | COc1ccc(-c2nc(C(F)(F)F)cn2-c2ccc(Br)cc2)cc1 [Example 1-2, 1-(4-Bromophenyl)-2-(4-methoxyphenyl)-4-trifluoromethyl-1H-imidazole] | –
131 to 132 | < 10 | ≥ 100 | COc1ccc(-c2nc(C(F)F)cn2-c2ccc(C#N)cc2)cc1 [Example 34, 1-(4-Cyanophenyl)-4-difluoromethyl-2-(4-methoxyphenyl)-1H-imidazole] | –
198 to 200 | – | – | COc1ccc(-c2nc(C(F)(F)F)cn2-c2ccc(O)cc2)cn1 [Example 6, 1-(4-Hydroxyphenyl)-2-(2-methoxy-5-pyridinyl)-4-trifluoromethyl-1H-imidazole] | –
155 to 158 | < 10 | ≥ 100 | COc1ccc(-c2nc(C(F)(F)F)cn2-c2ccc(C#N)cc2)cn1 [Example 8, 1-(4-Cyanophenyl)-2-(2-methoxy-5-pyridinyl)-4-trifluoromethyl-1H-imidazole] | –
132 to 134 | – | – | COc1ccc(-c2nc(C#N)cn2-c2ccc(OC)cc2)cc1 [Example 12-2, 4-Cyano-1-(4-methoxyphenyl)-2-(4-methoxyphenyl)-1H-imidazole] | –
150 to 153 | < 10 | ≥ 100 | COc1ccc(-c2nc(C(F)F)cn2-c2ccc(OC)cc2)cc1.Cl [Example 17, 4-Difluoromethyl-1-(4-methoxyphenyl)-2-(4-methoxyphenyl)-1H-imidazole hydrochloride] | –
203 to 205 | < 10 | ≥ 100 | COc1ccc(-c2nc(C)cn2-c2ccc(OC)cc2)cc1.Cl [Example 21, 1-(4-Methoxyphenyl)-2-(4-methoxyphenyl)-4-methyl-1H-imidazole hydrochloride] | –
143 to 145 | – | – | COc1ccc(-c2nc(C(F)F)cn2-c2ccc(O)cc2)cc1 [Example 32, 4-Difluoromethyl-1-(4-hydroxyphenyl)-2-(4-methoxyphenyl)-1H-imidazole] | –
215 to 216 | – | – | COc1ccc(-c2nc(C(F)(F)F)cn2-c2ccc(O)cc2)cc1 [Example 62, 1-(4-Hydroxyphenyl)-2-(4-methoxyphenyl)-4-trifluoromethyl-1H-imidazole] | –
185 to 186 | – | – | COc1ccc(-c2nc(C#N)cn2-c2ccc(C#N)cc2)cc1 [Example 27, 4-Cyano-1-(4-cyanophenyl)-2-(4-methoxyphenyl)-1H-imidazole] | –
